Experimental data as given in patent publication US10399939B2, “Tetrahydronaphthalene estrogen receptor modulators and uses thereof” (Genentech, Inc., priority 2015, dated 2019).

Biological target: ER-alpha (WT) (Homo sapiens (Human), UniProt P03372)
Test: Breast Cancer Cell ERa High Content Fluorescence Imaging Degradation Assay (ER-alpha MCF7 HCS)
Type: cell-based
Conditions: for ER-alpha (WT) MCF7 HCS (S inf): plateau of the maximal effect (ERa degradation), DMSO and 5 nM Fulvestrant define 0% and 100% changes in ESR1
Method: Example 901: Breast Cancer Cell ERa High Content Fluorescence Imaging Degradation Assay
MCF7 breast cancer cells were seeded on day 1 at a density of 10,000 cells per well in 384 well poly-lysine coated tissue culture plate (Greiner # T-3101-4), in 50 µL/well RPMI (phenol red free), 10% FBS (Charcoal stripped), containing L-glutamine. […] Compounds and controls were dispensed using a Labcyte Echo acoustic dispenser to dispense compounds with a pre-defined serial dilution (1.8×, 10 point, in duplicate) and appropriate backfill and control compounds (final total volume transferred was 417.5 nL and compound dispense volume ranges from 2.5 nL to 417.5 nL; 0.84% DMSO (v/v) final), ultimately producing a concentration range from 0.05 nM to 835 nM. Cell plates were incubated at 37° C., for 4 hours. Fixation and permeabilization were carried out using a Biotek EL406 plate washer and dispenser as follows. Cells were fixed by addition of 15 μL of 16% paraformaldehyde (Electron Microscopy Sciences #15710-S) directly to the 50 μL cell culture medium in each well using the peristaltic pump 5 μL cassette on a Biotek EL406 (final concentration of formaldehyde was 3.7% w/v). Samples were incubated 30 minutes. Well contents was aspirated and 50 μL/well of Phosphate Buffered Saline (PBS) containing 0.5% w/v bovine serum albumen, 0.5% v/v Triton X-100 (Antibody Dilution Buffer) was added to each well. Samples were incubated for 30 minutes. Well contents were aspirated and washed 3 times with 100 μL/well of PBS. Immunofluorescence staining of estrogen receptor alpha (ESR1) was carried out using a Biotek EL406 plate washer and dispenser as follows. The well supernatant was aspirated from the wells and 25 μL/well of anti-ESR1 mAb (F10) (Santa Cruz sc-8002) diluted 1:1000 in Antibody Dilution Buffer was dispensed. Samples were incubated for 2 hours at room temperature. Samples were washed 4 times with 100 μL/well of PBS. 25 μL (microliters)/well of secondary antibody solution (Alexafluor® 488 conjugate anti-mouse IgG (LifeTechnologies #A21202) diluted 1:1000 and Hoechst 33342 1 μg/ml diluted in Antibody Dilution Buffer) were dispensed into each well. Samples were incubated for 2 hours at room temperature. Samples were washed 3 times with 100 μL/well of PBS using a Biotek EL406. Quantitative fluorescence imaging of ESR1 was carried out using a Cellomics Arrayscan V® (Thermo). Fluorescence images of the samples (Channel 1: XF53 Hoechst (DNA stain); Channel 2: XF53 FITC (ESR1 stain)) were acquired using a Cellomics VTI Arrayscan using the Bioapplication “Compartmental Analysis” using the auto-exposure (based on DMSO control wells) setting “peak target percentile” set to 25% target saturation for both channels. Channel 1 (DNA stain) was used to define the nuclear region (Circ). Measurements of “Mean_CircAvgIntCh2”, which is the Alexafluor 488 fluorescence intensity (ESR1) within the nuclear region, was measured on a per cell basis and averaged over all the measured cells. Data analysis was carried out using Genedata Screener Software, with DMSO and 5 nM Fulvestrant treated samples being used to define the 0% and 100% changes in ESR1. The “Robust Fit” method was used to define the inflexion point of curve (EC50) and the plateau of the maximal effect (Sinf).

[1] = MCF7 breast cancer cells, 4 hours incubation, inflexion point of curve

ER-alpha (WT), sequence (P03372 whole entry): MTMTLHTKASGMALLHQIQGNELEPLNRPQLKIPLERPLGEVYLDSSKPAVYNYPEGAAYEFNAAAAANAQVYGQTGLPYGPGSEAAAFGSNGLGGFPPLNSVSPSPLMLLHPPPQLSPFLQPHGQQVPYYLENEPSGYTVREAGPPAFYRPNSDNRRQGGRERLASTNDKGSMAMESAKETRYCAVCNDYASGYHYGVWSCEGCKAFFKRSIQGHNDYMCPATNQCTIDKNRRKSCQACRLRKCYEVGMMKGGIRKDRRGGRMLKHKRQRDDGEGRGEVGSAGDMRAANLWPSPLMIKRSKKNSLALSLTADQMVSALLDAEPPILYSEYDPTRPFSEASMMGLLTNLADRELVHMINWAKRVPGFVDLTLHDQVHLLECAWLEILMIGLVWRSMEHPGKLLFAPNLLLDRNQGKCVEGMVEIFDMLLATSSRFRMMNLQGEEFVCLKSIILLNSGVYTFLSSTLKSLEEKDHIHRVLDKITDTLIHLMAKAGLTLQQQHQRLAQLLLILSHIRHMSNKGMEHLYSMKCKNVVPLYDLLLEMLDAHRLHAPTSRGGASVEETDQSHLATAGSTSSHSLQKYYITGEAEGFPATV

Row | SMILES | EC50 [1] [nM] | ER-alpha (WT) MCF7 HCS (S inf) (MCF7 breast cancer cells) [%] | ER-alpha (WT) MCF7 HCS (EC50) [1] [µmol] | degradation activities measured as ER-alpha MCF7 HCS Sinf (%) values (in words) (MCF7 cells)
1 | Oc1ccc2c(c1)CC[C@@H](c1ccccc1)[C@H]2c1ccc(NCCN2CC[C@@H](CF)C2)cc1 [Compound 140, (5S,6R)-5-(4-((2-((R)-3-(fluoromethyl)pyrrolidin-1-yl)ethyl)amino)phenyl)-6-phenyl-5,6,7,8-tetrahydronaphthalen-2-ol] | 0.773 | −45 | – | –
2 | Oc1ccc2c(c1)CC[C@@H](c1ccccc1)[C@H]2c1ccc(OCCN2CC(CF)C2)nc1 [Compound 128, (5R,6R)-5-(6-(2-(3-(fluoromethyl)azetidin-1-yl)ethoxy)pyridin-3-yl)-6-phenyl-5,6,7,8-tetrahydronaphthalen-2-ol] | 12.5 | −84 | – | –
3 | Oc1ccc2c(c1)CC[C@@H](c1ccccc1)[C@H]2c1ccc(NC2CN(CCCF)C2)cc1 [Compound 131, (5S,6R)-5-(4-((1-(3-fluoropropyl)azetidin-3-yl)amino)phenyl)-6-phenyl-5,6,7,8-tetrahydronaphthalen-2-ol] | 13.8 | −35 | – | –
4 | Oc1ccc2c(c1)CC[C@H](C1CCOCC1)[C@@H]2c1ccc(OCCN2CC(CF)C2)cc1 [Compound 107, (5R,6R)-5-(4-(2-(3-(fluoromethyl)azetidin-1-yl)ethoxy)phenyl)-6-(tetrahydro-2H-pyran-4-yl)-5,6,7,8-tetrahydronaphthalen-2-ol] | 16.4 | −87.8 | – | –
5 | Oc1ccc2c(c1)CC[C@@H](c1ccccc1)[C@H]2c1c(F)cc(OCCN2CC(CF)C2)cc1F [Compound 104, (1R,2R)-1-[2,6-difluoro-4-[2-[3-(fluoromethyl)azetidin-1-yl]ethoxy]phenyl]-2-phenyl-tetralin-6-ol] | 15.6 | −95 | – | –
6 | Oc1ccc2c(c1)CCC1(CCCC1)[C@H]2c1ccc(OCCN2CC(CF)C2)cc1 [Compound 121, (S)-1′-(4-(2-(3-(fluoromethyl)azetidin-1-yl)ethoxy)phenyl)-3′,4′-dihydro-1′H-spiro[cyclopentane-1,2′-naphthalen]-6′-ol] | 0.208 | −98.5 | – | –
7 | Oc1ccc2c(c1)CC[C@H](c1ccccc1)[C@@H]2c1ccc(NC2CN(CCCF)C2)cc1 [Compound 132, (5R,6S)-5-(4-((1-(3-fluoropropyl)azetidin-3-yl)amino)phenyl)-6-phenyl-5,6,7,8-tetrahydronaphthalen-2-ol] | 0.029 | −99.9 | – | –
8 | CS(=O)(=O)c1ccc([C@@H]2CCc3cc(O)ccc3[C@@H]2c2ccc(OCCN3CC(CF)C3)cc2)cc1 [Compound 115, (5S,6R)-5-(4-(2-(3-(fluoromethyl)azetidin-1-yl)ethoxy)phenyl)-6-(4-(methylsulfonyl)phenyl)-5,6,7,8-tetrahydronaphthalen-2-ol] | 39.4 | −75 | – | –
9 | Oc1ccc2c(c1)CC[C@@H](c1ccccc1)[C@H]2c1ccc(OCCN2CC(CCl)C2)cc1 [Compound 113, (5S,6R)-5-(4-(2-(3-(chloromethyl)azetidin-1-yl)ethoxy)phenyl)-6-phenyl-5,6,7,8-tetrahydronaphthalen-2-ol] | 0.177 | −93.6 | – | –
10 | Oc1ccc2c(c1)CC[C@H](c1ccccc1)[C@@H]2c1ccc(OCCN2CC(CF)C2)cc1F [Compound 120, (5S,6S)-5-(2-fluoro-4-(2-(3-(fluoromethyl)azetidin-1-yl)ethoxy)phenyl)-6-phenyl-5,6,7,8-tetrahydronaphthalen-2-ol] | 0.036 | −98.8 | – | –
11 | Oc1ccc2c(c1)CC[C@H](c1ccc(F)cc1)[C@@H]2c1ccc(OCCN2CC(CF)C2)cc1 [Compound 106, (1R,2S)-1-[4-[2-[3-(fluoromethyl)azetidin-1-yl]ethoxy]phenyl]-2-(4-fluorophenyl)tetralin-6-ol] | 0.977 | −97 | – | –
12 | Oc1ccc2c(c1)CC[C@@H](c1ccccc1)[C@H]2c1ccc(OCCN2CC(CF)C2)cc1 [Compound 102, (1S,2R)-1-[4-[2-[3-(fluoromethyl)azetidin-1-yl]ethoxy]phenyl]-2-phenyl-tetralin-6-ol] | 8.12 | −94.7 | – | –

Further lines, results first:

Row | EC50 [1] [nM] | ER-alpha (WT) MCF7 HCS (S inf) (MCF7 breast cancer cells) [%] | ER-alpha (WT) MCF7 HCS (EC50) [1] [µmol] | degradation activities measured as ER-alpha MCF7 HCS Sinf (%) values (in words) (MCF7 cells) | SMILES
13 | 0.1 | −94.2 | – | – | Oc1ccc2c(c1)CC[C@@H](c1ccccc1)[C@H]2c1ccc(OCCN2CCC(CF)C2)cc1 (stereo partly drawn) [Compound 114, (5S,6R)-5-(4-(2-(3-(fluoromethyl)pyrrolidin-1-yl)ethoxy)phenyl)-6-phenyl-5,6,7,8-tetrahydronaphthalen-2-ol]
14 | 38.6 | −78 | – | – | Oc1ccc2c(c1)CC[C@@H](c1ccc(F)cc1)[C@H]2c1ccc(OCCN2CC(CF)C2)cc1 [Compound 103, (1S,2R)-1-[4-[2-[3-(fluoromethyl)azetidin-1-yl]ethoxy]phenyl]-2-(4-fluorophenyl)tetralin-6-ol]
15 | 186 | −80 | – | – | Oc1cccc2c1[C@H](c1ccc(OCCN3CC(CF)C3)cc1)[C@H](c1ccccc1)CC2 [Compound 136, (7R,8S)-8-(4-(2-(3-(fluoromethyl)azetidin-1-yl)ethoxy)phenyl)-7-phenyl-5,6,7,8-tetrahydronaphthalen-1-ol]
16 | – | – | >0.10 | – | Oc1ccc2c(c1)CC[C@@H](c1ccccc1)[C@H]2c1ccc(OCCN2CC(C(F)F)C2)cc1 [Compound 116, (5S,6R)-5-(4-(2-(3-(difluoromethyl)azetidin-1-yl)ethoxy)phenyl)-6-phenyl-5,6,7,8-tetrahydronaphthalen-2-ol]
17 | 19 | −58 | – | low | CN1CC(CCOc2ccc([C@@H]3c4ccc(O)cc4CC[C@@H]3c3ccccc3)cc2)C1 (stereo in doubt) [A, (5R,6S)-5-(4-(2-(1-methylazetidin-3-yl)ethoxy)phenyl)-6-phenyl-5,6,7,8-tetrahydronaphthalen-2-ol, reference compound]
18 | 0.184 | −93.6 | – | – | Oc1ccc2c(c1)CC[C@H](c1ccccc1)[C@@H]2c1ccc(OCCN2CC(C(F)F)C2)cc1 [Compound 118, (5R,6S)-5-(4-(2-(3-(difluoromethyl)azetidin-1-yl)ethoxy)phenyl)-6-phenyl-5,6,7,8-tetrahydronaphthalen-2-ol]
19 | – | −73.5 | – | – | Oc1ccc2c(c1)CC[C@H](c1ccccc1)[C@@H]2c1ccc(OCCN2CCCC2)cc1 [lasofoxifene, (5R,6S)-6-phenyl-5-(4-(2-(pyrrolidin-1-yl)ethoxy)phenyl)-5,6,7,8-tetrahydronaphthalen-2-ol, reference compound]
20 | 0.227 | −91.4 | – | – | CS(=O)(=O)c1ccc([C@H]2CCc3cc(O)ccc3[C@H]2c2ccc(OCCN3CC(CF)C3)cc2)cc1 [Compound 117, (5R,6S)-5-(4-(2-(3-(fluoromethyl)azetidin-1-yl)ethoxy)phenyl)-6-(4-(methylsulfonyl)phenyl)-5,6,7,8-tetrahydronaphthalen-2-ol]
21 | 0.371 | −100 | – | – | Oc1ccc2c(c1)CC[C@H](c1ccccc1)[C@@H]2c1ccc(OCCN2CC(CF)C2)cc1 [Compound 101, (1R,2S)-1-[4-[2-[3-(fluoromethyl)azetidin-1-yl]ethoxy]phenyl]-2-phenyl-tetralin-6-ol]
22 | 0.0404 | −98.7 | – | – | Oc1ccc2c(c1)CC[C@H](c1ccccc1)[C@@H]2c1c(F)cc(OCCN2CC(CF)C2)cc1F [Compound 105, (1S,2S)-1-[2,6-difluoro-4-[2-[3-(fluoromethyl)azetidin-1-yl]ethoxy]phenyl]-2-phenyl-tetralin-6-ol]
23 | 0.177 | −98.2 | – | – | Oc1ccc2c(c1)CC[C@H](C1CCC(F)(F)CC1)[C@@H]2c1ccc(OCCN2CC(CF)C2)cc1 [Compound 110, (5R,6R)-6-(4,4-difluorocyclohexyl)-5-(4-(2-(3-(fluoromethyl)azetidin-1-yl)ethoxy)phenyl)-5,6,7,8-tetrahydronaphthalen-2-ol]
